Measured values: patent EP2931723B1, “NEW BICYCLIC COMPOUNDS AND THEIR USE AS ANTIBACTERIAL AGENTS AND -LACTAMASE INHIBITORS” (Fedora Pharmaceuticals Inc., priority 2012, dated 2014)

What was measured:
Assay in all cases: MIC, antibacterial and synergistic activity
Assay type in all cases: cell-based
[1] = test system: E. coli JMI 2692; conditions: E. coli JMI 2692 (NDM-1, TEM-1, CTX-M-15)
Protocol: (§1) In the Tables 10 - 12, compounds herein disclosed were tested in combination with various antibiotics against metallo β-lactamase producing bacteria.

[2] = test system: K. pneumo JMI 2697; conditions: K. pneumo JMI 2697 (IMP-4 (Cpase))
Protocol: as §1

[3] = test system: K. pneumo JMI 2693; conditions: K. pneumo JMI 2693 (NDM-1 (Cpase))
Protocol: as §1

[4] = test system: E. coli JMI 4080
[5] = test system: P. aerug JMI 149; conditions: P. aerug JMI 149 (Bla+++D+)
[6] = test system: E.coli JMI 4103; conditions: E.coli JMI 4103 (KPC-2, Tem-1, CMY-Type)
[7] = test system: K. pneumo JMI 2673; conditions: K. pneumo JMI 2673 (CTX-M14 (ESBL)); substance alone
[8] = test system: E. coli JMI 10768; conditions: E. coli JMI 10768 (CTX-M15 (Weak ESBL))
Protocol: (§2) In the Tables 10 - 12, compounds herein disclosed were tested in combination with various antibiotics against metallo β-lactamase producing bacteria. Table 3: Synergy of the inhibitor Ex. 1 (4 µg/mL) in combination with antibiotics

[9] = test system: E. coli JMI 10770; conditions: E. coli JMI 10770 (CTX-M15 (Hyper ESBL))
Protocol: as §2

[10] = test system: K.pneumo JMI 4109; conditions: K.pneumo JMI 4109 (SHV-1, SHV-12)
Outline: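 Antibacterial synergy was assessed by pairing each inhibitor compound, at a constant concentration of 4 µg/mL, with β-lactam antibiotics. The combinations were run against bacterial strains that produce β-lactamases, and the readout was the minimum inhibitory concentration of the antibiotic in the presence of the inhibitor.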

[11] = test system: E. coli JMI 10767; conditions: E. coli JMI 10767 (Wt)
Protocol: as §2

[12] = test system: E. coli JMI 2671
Outline: (§3)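 Each antibiotic's minimum inhibitory concentration is reported when tested alongside inhibitor at 4 µg/mL. Strains carry metallo β-lactamases.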

[13] = test system: K. pneumo JMI 4088; conditions: K. pneumo JMI 4088 (KPC-3 (Cpase))
Outline: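 The compound was tested for synergy by combining it with antibiotics and measuring minimum inhibitory concentrations against β-lactamase producing bacteria. The inhibitor was present at a fixed concentration of 4 µg/mL together with the partner antibiotic, and MIC values were recorded.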

[14] = test system: K. pneumo JMI 2673; conditions: K. pneumo JMI 2673 (CTX-M14 (ESBL))
Outline: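 Antibacterial synergy was assessed by testing a β-lactamase inhibitor compound in combination with antibiotics. The inhibitor was held at a fixed concentration of 4 µg/mL, and the minimum inhibitory concentration of the partner antibiotic was determined in its presence.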

[15] = test system: K. pneumo JMI 2699; conditions: K. pneumo JMI 2699 (VIM-1, CTX-M3)
Outline: as §3

[16] = test system: K. pneumo JMI 2674; conditions: K. pneumo JMI 2674 (CTX-M15 (ESBL))
Outline: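 Antibacterial activity was assessed as minimum inhibitory concentrations against a β-lactamase-producing bacterial strain. Each test inhibitor was combined with an antibiotic, with the inhibitor held at a fixed 4 µg/mL, to determine whether it acted synergistically and restored the antibiotic's effect against the resistant organism.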

[17] = test system: E. coli JMI 2665
Protocol: as §2

[18] = test system: P. aerug JMI 2686; conditions: P. aerug JMI 2686 (KPC-2 (Cpase))
Outline: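 This antibacterial synergy assay measured the minimum inhibitory concentration of antibiotics combined with the disclosed inhibitor compounds. The inhibitor was held at 4 µg/mL throughout. The aim was to see whether the added compound strengthened the antibiotic's action against the tested bacteria.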

[19] = test system: K. pneumo JMI 4088; conditions: K. pneumo JMI 4088 (KPC-3 (Cpase)); substance alone
[20] = test system: K.pneumo JMI 4109; conditions: K.pneumo JMI 4109 (SHV-1, SHV-12); substance alone
[21] = test system: A. baumanii JMI 2659; conditions: A. baumanii JMI 2659 (Ges-14 (Cpase))
[22] = test system: E. coli JMI 10767; conditions: E. coli JMI 10767 (Wt); remark: listed apart in the source
[23] = Aztreonam + inhibitor at 4 µg/mL
[24] = Ceftazidime + inhibitor at 4 µg/mL
[25] = Meropenem + inhibitor at 4 µg/mL

CCC(=O)NNC(=O)[C@@H]1CC[C@@H]2CN1C(=O)N2OS(=O)(=O)O [Ex. 8, (2S,5R)-7-oxo-N'-propanoyl-6-(sulfooxy)-1,6-diazabicyclo[3.2.1]octane-2-carbohydrazide]
MIC Aztreonam + inhibitor [1, 23]: ≤0.062 µg/mL | MIC Ceftazidime + inhibitor [1, 24]: ≤0.25 µg/mL | MIC Meropenem + inhibitor [1, 25]: 2 µg/mL | MIC ([1]; Escherichia coli, JMI2692, substance alone, read-out: MIC): 4 µg/mL | MIC Aztreonam + inhibitor [2, 23]: ≤0.062 µg/mL | MIC Ceftazidime + inhibitor [2, 24]: 16 µg/mL | MIC Meropenem + inhibitor [2, 25]: 2 µg/mL | MIC ([2]; substance alone): > 16 µg/mL | MIC Aztreonam + inhibitor [3, 23]: 2 µg/mL | MIC Ceftazidime + inhibitor [3, 24]: 8 µg/mL | MIC Meropenem + inhibitor [3, 25]: 0.125 µg/mL | MIC ([3]; substance alone): > 16 µg/mL | MIC Aztreonam + inhibitor ([4]; E. coli JMI 4080 (Tem-10), Aztreonam + inhibitor at 4 µg/mL): ≤0.062 µg/mL | MIC Ceftazidime + inhibitor ([4]; E. coli JMI 4080 (Tem-10), Ceftazidime + inhibitor at 4 µg/mL): ≤0.25 µg/mL | MIC Meropenem + inhibitor ([4]; E. coli JMI 4080 (Tem-10), Meropenem + inhibitor at 4 µg/mL): ≤0.0312 µg/mL | MIC ([4]; Escherichia coli, JMI4080, E. coli JMI 4080 (Tem-10), substance alone): 4 µg/mL | MIC Aztreonam + inhibitor [5, 23]: >4 µg/mL | MIC Ceftazidime + inhibitor [5, 24]: >16 µg/mL | MIC Meropenem + inhibitor [5, 25]: 0.5 µg/mL | MIC ([5]; substance alone, read-out: MIC): > 16 µg/mL | MIC Aztreonam + inhibitor [6, 23]: ≤0.062 µg/mL | MIC Ceftazidime + inhibitor [6, 24]: ≤0.25 µg/mL | MIC Meropenem + inhibitor [6, 25]: ≤0.0312 µg/mL | MIC ([6]; Escherichia coli, JMI4103, substance alone): 4 µg/mL | MIC [7]: > 16 µg/mL | MIC Aztreonam + inhibitor [8, 23]: ≤0.062 µg/mL | MIC Ceftazidime + inhibitor [8, 24]: ≤0.25 µg/mL | MIC ([8]; Escherichia coli, JMI10768, substance alone): > 16 µg/mL | MIC Aztreonam + inhibitor [9, 23]: ≤0.062 µg/mL | MIC Ceftazidime + inhibitor [9, 24]: ≤0.25 µg/mL | MIC Meropenem + inhibitor [9, 25]: ≤0.0312 µg/mL | MIC Aztreonam + inhibitor [10, 23]: ≤0.062 µg/mL | MIC Ceftazidime + inhibitor [10, 24]: ≤0.25 µg/mL | MIC Meropenem + inhibitor [10, 25]: ≤0.0312 µg/mL | MIC Aztreonam + inhibitor [11, 23]: ≤0.062 µg/mL | MIC Ceftazidime + inhibitor [11, 24]: ≤0.25 µg/mL | MIC Aztreonam + inhibitor ([12]; E. coli JMI 2671 (VIM-19 (Cpase)), Aztreonam + inhibitor at 4 µg/mL): ≤0.062 µg/mL | MIC Ceftazidime + inhibitor ([12]; E. coli JMI 2671 (VIM-19 (Cpase)), Ceftazidime + inhibitor at 4 µg/mL): 0.5 µg/mL | MIC Meropenem + inhibitor ([12]; E. coli JMI 2671 (VIM-19 (Cpase)), Meropenem + inhibitor at 4 µg/mL): 1 µg/mL | MIC ([12]; Escherichia coli, JMI2671, E. coli JMI 2671 (VIM-19 (Cpase)), substance alone): > 16 µg/mL | MIC Aztreonam + inhibitor [13, 23]: 0.125 µg/mL | MIC Ceftazidime + inhibitor [13, 24]: 0.5 µg/mL | MIC Meropenem + inhibitor [13, 25]: 0.5 µg/mL | MIC Aztreonam + inhibitor [14, 23]: ≤0.062 µg/mL | MIC Ceftazidime + inhibitor [14, 24]: ≤0.25 µg/mL | MIC Meropenem + inhibitor [14, 25]: ≤0.0312 µg/mL | MIC Aztreonam + inhibitor [15, 23]: ≤0.062 µg/mL | MIC Ceftazidime + inhibitor [15, 24]: ≤0.25 µg/mL | MIC Meropenem + inhibitor [15, 25]: 0.125 µg/mL | MIC ([15]; substance alone, read-out: MIC): > 16 µg/mL | MIC Aztreonam + inhibitor [16, 23]: ≤0.062 µg/mL | MIC Ceftazidime + inhibitor [16, 24]: ≤0.25 µg/mL | MIC Meropenem + inhibitor [16, 25]: 0.062 µg/mL | MIC Aztreonam + inhibitor ([17]; E. coli JMI 2665 (CMY-2 (Plasmid Cpase)), Aztreonam + inhibitor at 4 µg/mL): ≤0.062 µg/mL | MIC Ceftazidime + inhibitor ([17]; E. coli JMI 2665 (CMY-2 (Plasmid Cpase)), Ceftazidime + inhibitor at 4 µg/mL): ≤0.25 µg/mL | MIC ([17]; Escherichia coli, JMI2665): 4 µg/mL | MIC Aztreonam + inhibitor [18, 23]: >4 µg/mL | MIC Ceftazidime + inhibitor [18, 24]: >16 µg/mL | MIC Meropenem + inhibitor [18, 25]: >2 µg/mL | MIC [19]: > 16 µg/mL | MIC [20]: 4 µg/mL | MIC Aztreonam + inhibitor [21, 23]: >4 µg/mL | MIC Ceftazidime + inhibitor [21, 24]: >16 µg/mL | MIC Meropenem + inhibitor [21, 25]: >2 µg/mL | MIC ([21]; Acinetobacter baumannii, JMI2659, substance alone, read-out: MIC): > 16 µg/mL | MIC Meropenem + inhibitor [22, 25]: ≤0.0312 µg/mL | MIC ([22]; Escherichia coli, JMI10767, substance alone): > 16 µg/mL
